Test results as given in patent US7476522B2, “Method for producing γ-linolenic acids from a ciliate culture by adding suitable precursor molecules to said culture medium” (Nutrinova Nutrition Specialties & Food Ingredients GmbH, priority 2001, dated 2009).
Like-named read-outs stand apart in the source and are kept apart here.

Assays:
[1] = tested on: Tetrahymena thermophila B1868VII
Protocol: (§1) Fermentations were carried out in a 1 l fermenter (700 ml working volume), 5 l fermenter (3 l working volume) and a 13 l fermenter (10 l working volume). The fermenters were equipped as standard with a pH electrode, a pO2 electrode, an aeration ring, a stirrer shaft with disk vein agitator, feed line for acid/alkali, feed line for feeding, inoculation fittings and sampling.
(§2) Fermentation conditions were as specified in Table 2.
(§3) To determine the biomass dry matter, 5 ml of cell culture were centrifuged for 10 min at 3400 g and 4° C., the supernatant was decanted and the cell pellet was frozen at −80° C. The frozen biomass was lyophilized and the weight of the biomass dry matter was determined.
(§4) The cell density was determined using the CASY 1 Cell Counter+Analyser System, Model TTC, Schärfe System. For measurement, the cells were diluted (1:500) in a weak CASY electrolyte solution and transported through a capillary of 150 μm diameter. The cells in a range of 15-50 μm particle size were counted.
(§5) The nonpolar lipid constituents (neutral lipids) were extracted from the biomass dry matter with n-hexane. For one batch, approximately 500 mg of biomass dry matter were stirred in 5 ml of n-hexane for 1 h at 60° C., then centrifuged for 2 min at 2700 g and the supernatant was purified by filtering off suspended matter. For the filtration, a Pasteur Pipette filled with cotton wool was used, having a fill height of approximately 1 cm. The cell residue for the first extraction was extracted a further time with 5 ml of solvent, the biomass was centrifuged off and the supernatant filtered. The purified organic phases of the two extractions were combined, the solvent was completely evaporated on a rotary evaporator and the amount of extracted lipid was determined by weighing.
(§6) The fatty acid spectrum was determined by means of a gas chromatograph (HP GC 6890) equipped with a flame ionization detector (Hewlett-Packard Company, Wilmington, USA). The column used was an FFAP (Free Fatty Acid Phase) Permbond (Macherey & Nagel GmbH, Düren). The fatty acids were identified by comparison with the retention times of fatty acid methyl ester standards. On the basis of the known concentration of the standard, the concentration of fatty acids in the samples could be determined.
(§7) 30-70 mg of the lyophilized biomass dry matter (see determination of biomass) were weighed out and were admixed with 1 ml of 20% strength methanolic HCl and 1 ml of methanolic standard solution (1 mg/ml). To liberate the fatty acids and transesterify them into fatty acid methyl esters, the samples were stirred in a closed test tube for two hours at 60° C. in a water bath and cooled to room temperature. To neutralize the sample, 1 ml of aqueous saturated sodium hydrogen carbonate solution was then added and the sample was mixed carefully. The fatty acid methyl esters were extracted by adding n-hexane. The batch was then mixed vigorously and phase separation was achieved by centrifuging for 2 min at 4300 rpm. About ⅔ of the upper organic phase was taken off and 1 μl of the sample was injected onto the GC column and analyzed (see also Table 5).
(§8) The fermentations were carried out in a 1-l fermenter containing 700 ml of MM-Var medium.

Tetrahymena = settings: supplying acetate; cited from earlier work
[2] = tested on: Tetrahymena thermophila B1868VII; settings: for lipid content versus standard fermentation: NaAc feed
Protocol: as §1, §2, §3, §4, §5, §6, §7, §8

Tetrahymena pyriformis = settings: cited from earlier work
[3] = acetate added before inoculation and also during culture

## CC(=O)[O-].[Na+] [NaAc, sodium acetate]
[1]
  cell growth (cell density and biomass dry matter): adversely affected cell growth
  formation of GLA product by volume: decreased
[1]; 0.5 and 1.0 g/l NaAc in basal medium
  GLA content of the biomass dry matter: not altered
[1]; MM-VAR containing 0.5 g/l of NaAc, 46 h
  NL/BDM: 8 %(w/w)
[1]; MM-VAR containing 0.5 g/l of NaAc, 70 h
  NL/BDM: 17 %(w/w)
[1]; MM-VAR containing 1.0 g/l of NaAc, 46 h
  NL/BDM: 11 %(w/w)
[1]; MM-VAR containing 1.0 g/l of NaAc, 70 h
  NL/BDM: 17 %(w/w)
[1]; NaAc added to MM-Var basal medium
  GLA content in the neutral lipid versus standard fermentation: only slight differences
[1]; NaAc added to MM-Var basal medium, after 70 h, standard […]%
  NL content: 17 % (w/w)
[1]; NaAc in basal medium, culture time 46 h
  lipid content versus standard fermentation: no significant difference
[1]; [3]
  GLA yield overall: impairment
  fatty acid spectrum and GLA content of the biomass: no marked change
  growth: poorer growth
Tetrahymena
  composition of the fatty acids: not changed
[2]
  cell growth (cell density and BDM): adverse effect on the cell growth
  formation of GLA product by volume: impaired
[2]; Feed 0.02 g/l of NaAc, 46 h
  NL/BDM: 8 %(w/w)
[2]; Feed 0.02 g/l of NaAc, 70 h
  NL/BDM: 12 %(w/w)
[2]; Feed 0.4 g/l of NaAc, 46 h
  NL/BDM: 9 %(w/w)
[2]; Feed 0.4 g/l of NaAc, 70 h
  NL/BDM: 13 %(w/w)
[2]; NaAc fed during culturing
  GLA content of the biomass dry matter: unchanged
[2]; after 70 h
  lipid content versus standard fermentation: no significant increase
[2]; culture time 46 h
  lipid content versus standard fermentation: no difference
Tetrahymena pyriformis; 0.1% acetate added to basal medium which does not contain glucose, […]10^5 without
  cell count: 1.6×10^5 cells per ml
Tetrahymena pyriformis; acetate, basal medium which contains glucose, 1.85×10^5 without
  cell count: 1.9×10^5 cells per ml
